Assay results reported in patent US11357774B2, “Use of a quinoline sulfonyl compound for treatment of inflammation, inflammatory disorders, autoimmune disorders and malaria” (priority 2019, dated 2022).

Legend:
[1] = target: β2 subunit of the proteasome 20S catalytic unit (Homo sapiens, UniProt Q99436); conditions: cited from earlier work
[2] = system: cancer over non-cancer cells; conditions: in vitro studies; cited from earlier work
[3] = system: IL-6 and TNF-α secretion in human PBMC; assay: IL-6 and TNF-α in PHA-p-stimulated human PBMC (ELISA); type: cell-based; conditions: PHA-p 10 μg/mL, 6 hours
Method: The values presented are the mean±SEM (n=2).
(§1) The enzyme-linked immunosorbent assay (ELISA) is a quantitative measurement based on sandwich-based enzyme linking, using a protein-specific capture antibody to determine the levels of single or multiple chemokines and cytokines.
Data in FIG. 14 show the levels of IL-6 (upper plot) and TNF-α (lower plot) in human PBMC (1×10^6/mL cells) stimulated with 10 μg/mL phytohemagglutinin-p (PHA-p) (10 μg/mL) for 6 hours, in the absence (control) or presence of varying concentrations of VR23 (0.38, 0.75, 1.5, 3 or 6 μM) or BTZ (6.25, 12.5, 25 or 50 nM). The measurement was carried out with a single-analyte ELISA.

[4] = system: BALB/c mice with ALI caused by LPS; assay: LPS-induced acute lung injury in mice, bronchoalveolar fluid cell counts and TNF-α; type: in vivo, mouse; conditions: 24 hours, VR23 30 mg/kg intraperitoneally
Excerpt: as §1
Six to eight week old female BALB/c mice strain 028 (Charles River Laboratories, QC, Canada) were fed regularly with laboratory chow and water upon arrival at the Laurentian University Animal Care Facility (Sudbury, ON, Canada). To determine a useful dose of LPS, three mice per group were treated for 24 hours with the following three different conditions: (i) no LPS, (ii) 0.25 mg of LPS per kg of body weight, and (iii) 0.50 mg of LPS per kg of body weight. […] After the animals were sacrificed, the bronchoalveolar lavage fluid (BALF) of each mouse was collected and analyzed for LPS-induced inflammatory responses. […] Bronchoalveolar lavage fluid was collected and the number of cells infiltrated into the bronchoalveolar fluid were counted (FIG. 2). […]
Toward this goal, a useful LPS dose to induce TNF-α in the mouse bronchoalveolar fluid was first obtained. […] To illustrate the anti-inflammatory property of VR23, the level of TNF-α in the BALF was measured at 24-hour post-treatment. […] The levels of TNF-α were determined at 24-hour post-LPS stimulation (0.4 mg/kg), in the absence (controls) or presence of DEX (4 mg/kg) or VR23 (30 mg/kg).

[5] = system: human fibroblast-like synoviocytes from rheumatoid arthritis patients (HFLS-RA); assay: Viability test, HFLS-RA cells; type: cell-based; conditions: 6 hours, IL-1β 10 ng/mL, VR23 1.25-5.0 μM, HCQ 7.5-30 μM
Method: The values presented are the mean±SEM (n=3).
The CCK-8 assay was used to count viable cells under the various treatment conditions. Briefly, cells were cultured in 11 columns of a 96-well clustered plate, with 5,000 cells in 100 μL of culture medium per well, excluding one column for a media-only control. The plate was incubated overnight at 37° C. in the humidified conditions, followed by treatment with test compounds diluted in the culture medium (10 μL). Each column was treated with a different condition so that each treatment could have 8 repeats. […] The absorbance was measured using an automatic plate reader (Synergy H4 Hybrid Multi-Mode Microplate Reader, BioTek, Montreal, Canada) at 450 nm wavelength. The cell viability of each treatment sample was determined by using the following equation (%)=(Abstrtmt-Absmedia)/(AbsuT-Absmedia)*100, where Abstrtmt is the absorbance value of cells with the various treatment conditions; Absmedia is the absorbance of the well containing media only; AbsuT is the absorbance of the wells with untreated cells.
This finding was extended to human cells relevant to autoimmune diseases. […] Cytokine levels in cell culture supernatants were determined by a single-analyte ELISA. […] The cytokine secretion was measured in cell culture supernatants by a single-analyte ELISA.

O=[N+]([O-])c1ccc(S(=O)(=O)N2CCN(c3ccnc4cc(Cl)ccc34)CC2)c([N+](=O)[O-])c1 [VR23, 7-chloro-4-(4-(2,4-dinitrophenylsulfonyl)piperazin-1-yl)quinoline]
proteasome inhibition [1]: strong proteasome inhibitor | selectivity of cell killing [2]: preferentially kills cancer over non-cancer cells | PHA-induced IL-6 ([3]; VR23 1.5 μM, BTZ 6 nM): completely prevented | PHA-induced TNF-α ([3]; VR23 3.0 μM, BTZ 4× the IC50 dose): completely prevented | cytokine secretion (IL-6, TNF-α), dose dependence ([3]; VR23 0.38-6 μM): decreases in a dose dependent manner | total number of cells recruited into the bronchoalveolar space ([4]; LPS 0.4 mg/kg intranasally): completely prevented | level of TNF-α in bronchoalveolar lavage fluid ([4]; LPS 0.4 mg/kg): effectively reduces the level of TNF-α | cell viability [5]: none of the conditions examined significantly affected the viability
